Where two headings read alike, the source gives them in different places. Non-standard residues stand in square brackets, D forms with d. Residues, ends and D or L forms follow the SMILES beside them. ξ: configuration not given here. *: point of attachment. ξF = NC(Cc1ccccc1)C(=O)O; Cbz = O=C(OCc1ccccc1)*; CF3 = FC(F)(F)*
Columns and labels:
[1] = ref TCMSP database, cited from earlier work; for HBA: number of hydrogen-bond acceptors; for HBD: number of hydrogen-bond donors; for OB (%): oral bioavailability
SARS-CoV-2 3CLpro [2] = molecular target: T1, SARS-CoV-2 3CLpro (Severe acute respiratory syndrome coronavirus 2, UniProt P0DTD1); experiment: Surface plasmon resonance analysis (Biacore T200); type: binding
SARS-CoV-2 3CLpro [3] = molecular target: T1, SARS-CoV-2 3CLpro; conditions: SARS-CoV pIC50 multiplied by similarity index (SI), training set compounds
SARS-CoV 3CLpro [4] = conditions: SARS-CoV 3CLpro inhibitors (training set), ref: per compound, cited from earlier work; for pIC50: from literature IC50; for IC50: literature values
SARS-CoV 3CLpro [5] = type: biochemical; conditions: activity class by pIC50 threshold 6
[6] = SPR, 25 °C, 3CLpro-his captured on CM7 chip, read-out: KD

| SMILES | SI*pIC50 (SARS-CoV-2 3CLpro [3]) | pIC50 (SARS-CoV 3CLpro [4]) | IC50 (SARS-CoV 3CLpro [4]) [µM] | Inact.(<6)/Act.(>=6) (SARS-CoV 3CLpro [5]) | other results |
| --- | --- | --- | --- | --- | --- |
| O=c1cc(-c2ccc(O)cc2)oc2cc(O[C@@H]3O[C@H](CO)[C@@H](O)[C@H](O)[C@H]3O)cc(O)c12 [MOL000007, Cosmetin] |  |  |  |  | HBA [1]: 10; HBD [1]: 6; OB (%) [1]: 9.68%; BBB [1]: -2.26; Caco-2 [1]: -1.08; FASA- [1]: 0.32; NRotB [1]: 4 |
| COc1cc(-c2oc3cc(O)cc(O)c3c(=O)c2O[C@@H]2O[C@H](CO)[C@@H](O)[C@H](O)[C@H]2O)ccc1O [MOL007260] |  |  |  |  | Kd (SARS-CoV-2 3CLpro [2]; [6]): 9.45 µM |
| C[C@@H]1O[C@@H](O[C@H]2[C@H](O[C@H]3CC[C@@]4(C)[C@@H](CC[C@]5(C)[C@H]4CC=C4[C@H]6CC(C)(C)CC[C@]6(C(=O)O[C@@H]6O[C@H](CO[C@@H]7O[C@H](CO)[C@@H](O)[C@H](O)[C@H]7O)[C@@H](O)[C@H](O)[C@H]6O)CC[C@]45C)[C@]3(C)CO)OC[C@H](O)[C@@H]2O)[C@H](O)[C@H](O)[C@H]1O [MOL003034] |  |  |  |  | Kd (SARS-CoV-2 3CLpro [2]): 10.9 µM |
| O=C(/C=C/c1ccc(O)c2c1[C@H](C(=O)O[C@H](Cc1ccc(O)c(O)c1)C(=O)O)[C@@H](c1ccc(O)c(O)c1)O2)O[C@H](Cc1ccc(O)c(O)c1)C(=O)O [MOL007060] |  |  |  |  | Kd (SARS-CoV-2 3CLpro [2]): 64 µM |
| O=c1c(O[C@@H]2O[C@H](CO)[C@@H](O)[C@H](O)[C@H]2O[C@@H]2O[C@H](CO)[C@@H](O)[C@H](O)[C@H]2O)c(-c2ccc(O)cc2)oc2cc(O)cc(O)c12 [MOL002761] |  |  |  |  | Kd (SARS-CoV-2 3CLpro [2]; [6]): 12.5 µM |
| O=C(/C=C/c1ccc(O)c(O)c1)O[C@H]1[C@H](O)C[C@](O)(C(=O)O)C[C@H]1OC(=O)/C=C/c1ccc(O)c(O)c1 [MOL001878] |  |  |  |  | Kd (SARS-CoV-2 3CLpro [2]; [6]): 0.047 µM |
| C[C@@H]1O[C@@H](OC[C@H]2O[C@@H](OCCc3ccc(O)c(O)c3)[C@H](O)[C@@H](O)[C@@H]2OC(=O)/C=C/c2ccc(O)c(O)c2)[C@H](O)[C@H](O)[C@H]1O [MOL003331] |  |  |  |  | Kd (SARS-CoV-2 3CLpro [2]): 1.21 µM |
| O=C(/C=C/c1ccc(O)c2c1[C@H](C(=O)O)[C@@H](c1ccc(O)c(O)c1)O2)O[C@H](Cc1ccc(O)c(O)c1)C(=O)O [MOL007113] |  |  |  |  | Kd (SARS-CoV-2 3CLpro [2]): 15 µM |
| O=c1c(O[C@@H]2O[C@H](CO)[C@H](O)[C@H](O)[C@H]2O)c(-c2ccc(O)c(O)c2)oc2cc(O)cc(O)c12 [MOL004368] |  |  |  |  | Kd (SARS-CoV-2 3CLpro [2]; [6]): 9.98 µM |
| CC(C)c1ccc(N(C(=O)c2ccco2)C(C(=O)NC(C)(C)C)c2cccnc2)cc1 (centres unmarked) [CMP182] | 4.7028 | 4.551 | 28.1 | Inact. (Inact.(<6)) |  |
| CC(C)C[C@H](NC(=O)[C@@H](NC(=O)[C@H](C)NC(=O)OCc1ccccc1)C(C)C)C(=O)NC(Cc1ccccc1)C(=O)C(F)(F)F (some centres unmarked) [CMP174] (Cbz-AVL[ξF]-CF3) | 5.152 | 5 | 10 | Inact. (Inact.(<6)) |  |
| O=c1c(O)c(-c2ccc(O)cc2)oc2cc(O)cc(O)c12 [MOL000422] |  |  |  |  | Kd (SARS-CoV-2 3CLpro [2]; [6]): 24.6 µM |
| O=c1cc(-c2ccc(O)cc2)oc2cc(O)cc(O)c12 [MOL000008, apigenin] |  |  |  |  | HBA [1]: 5; HBD [1]: 3; OB (%) [1]: 23.06%; BBB [1]: -0.61; Caco-2 [1]: 0.43; FASA- [1]: 0.41; NRotB [1]: 1 |
| CC1=C(O)C(=O)C=C2C1=CC=C1[C@@]2(C)CC[C@@]2(C)[C@@H]3C[C@@H](C)C(=O)C[C@]3(C)CC[C@]12C [CMP126] | 5.156 | 5.004 | 9.91 | Inact. (Inact.(<6)) |  |
| C=C(N[C@@H](CC(C)C)C(=O)N[C@@H](CC1CCNC1=O)C(=O)Cn1[nH]c(=O)c2c([N+](=O)[O-])cccc2c1=O)[C@@H](NC(=O)[C@H](C)NC(=O)O)[C@@H](C)OCc1ccccc1 (some centres unmarked) [CMP101] | 6.374 | 6.222 | 0.6 | Act. (Act.(>=6)) |  |
| CCOC(=O)C(C#N)=CNc1ccc(S(=O)(=O)c2ccc(NC=C(C#N)C(=O)OCC)cc2)cc1 [CMP122] | 4.948 | 4.796 | 16 | Inact. (Inact.(<6)) |  |
| O=c1cc(-c2ccc(O)c(O)c2)oc2cc(O)cc(O)c12 [CMP153] | 4.851 | 4.699 | 20 | Inact. (Inact.(<6)) |  |
| COc1ccccc1/N=C/c1nc(-c2ccccc2)oc1OC(C)=O [CMP113] | 5.6333 | 5.481 | 3.3 | Inact. (Inact.(<6)) |  |
| CC(C)C1=CC2=CC[C@@H]3[C@](C)(CCC[C@@]3(C)C(=O)O)[C@H]2CC1 [CMP124] | 3.875 | 3.723 | 189 | Inact. (Inact.(<6)) |  |
| CC1=C(C(=O)OCCc2ccccc2)C(c2ccccc2[N+](=O)[O-])C2=C(CCCC2=O)N1 (centres unmarked) [CMP102] | 5.754 | 5.602 | 2.5 | Inact. (Inact.(<6)) |  |
